Results on 16 molecules are retold here after patent US11446287B2, “Compounds and methods for EP300 or CBP modulation and indications therefor” (Opna Immuno-Oncology SA, priority 2019, dated 2022).

Each structure is given as a SMILES string.

For this test, the target named is T1, Recombinant human CBP containing the bromodomain (CBP-BD (1043-1159)) (Homo sapiens, UniProt Q92793).
T1 construct: Recombinant human CBP bromodomain (CBP-BD (1043-1159)); made in house; host or cells: E. coli BL21-CodonPlus (DE3), modified pET vector
T1 sequence (Q92793 1081-1197): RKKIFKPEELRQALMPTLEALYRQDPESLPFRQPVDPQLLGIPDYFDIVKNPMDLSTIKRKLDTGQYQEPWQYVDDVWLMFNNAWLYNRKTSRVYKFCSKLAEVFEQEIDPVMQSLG
The experiment in a line: CBP Alphascreen binding assay. The conditions noted are these: read-out: CREBBP (CBP) IC50. The gist of the method: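 Buffer: 50 mM HEPES pH 7.5, 50 mM NaCl, 0.01% BSA, 0.01% Triton X-100, 2 mM DTT. The signal was normalised to plate controls and fitted with a four-parameter curve to give IC50.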
(In Alpha technology, singlet oxygen from a donor bead excites a nearby acceptor bead.)
As a reminder, the IC50 is the concentration that inhibits the measured activity by half. On to `Cc1noc(C)c1-c1cnc2c(c1)c(-c1ccc(C(=O)O)cc1OC(F)(F)F)cn2C1CCC(F)(F)CC1` [P-0227, 4-(1-(4,4-difluorocyclohexyl)-5-(3,5-dimethylisoxazol-4-yl)-1H-pyrrolo[2,3-b]pyridin-3-yl)-3-(trifluoromethoxy)benzoic acid], for which the IC50 was 0.1 to 1000 nM.

For `Cc1noc(C)c1-c1cnc2c(c1)c(-c1ccc(C(=O)O)cc1OC(F)(F)F)c(C)n2-c1ccccn1` [P-0228, 4-(5-(3,5-dimethylisoxazol-4-yl)-2-methyl-1-(pyridin-2-yl)-1H-pyrrolo[2,3-b]pyridin-3-yl)-3-(trifluoromethoxy)benzoic acid], the IC50 lay in the range of 0.1 to 1000 nM.

On to `Cc1noc(C)c1-c1cnc2c(-c3ccc(F)cc3F)cn(-c3ccc(C(=O)O)cc3OC(F)(F)F)c2c1` [P-0229, 4-(3-(2,4-difluorophenyl)-6-(3,5-dimethylisoxazol-4-yl)-1H-pyrrolo[3,2-b]pyridin-1-yl)-3-(trifluoromethoxy)benzoic acid], for which the IC50 lay within 0.1 to 1000 nM.

As to `Cc1noc(C)c1-c1cnc2c(c1)c(-c1c(F)cc(C(=O)O)cc1OC(F)(F)F)cn2C(C1CC1)C1CC1` [P-0230, 4-(1-(dicyclopropylmethyl)-5-(3,5-dimethylisoxazol-4-yl)-1H-pyrrolo[2,3-b]pyridin-3-yl)-3-fluoro-5-(trifluoromethoxy)benzoic acid], the half-maximal inhibitory concentration (IC50) was in the range of 0.1 to 1000 nM.

As to `Cc1ccccc1-n1cc(-c2ccc(C(=O)O)cc2OC(F)(F)F)c2cc(-c3c(C)noc3C)cnc21` [P-0231, 4-(5-(3,5-dimethylisoxazol-4-yl)-1-(o-tolyl)-1H-pyrrolo[2,3-b]pyridin-3-yl)-3-(trifluoromethoxy)benzoic acid], the IC50 is 0.1 to 1000 nM.

For the molecule `Cc1noc(C)c1-c1cnc2c(c1)c(-c1ccc(C(=O)O)cc1OC(F)(F)F)cn2-c1ccc(F)cc1F` [P-0232, 4-(1-(2,4-difluorophenyl)-5-(3,5-dimethylisoxazol-4-yl)-1H-pyrrolo[2,3-b]pyridin-3-yl)-3-(trifluoromethoxy)benzoic acid], the IC50 lay within 0.1 to 1000 nM.

As to `Cc1noc(C)c1-c1cnc2c(c1)c(-c1ccc(C(=O)O)cc1OC(F)(F)F)cn2-c1cc(F)ccc1F` [P-0233, 4-(1-(2,5-difluorophenyl)-5-(3,5-dimethylisoxazol-4-yl)-1H-pyrrolo[2,3-b]pyridin-3-yl)-3-(trifluoromethoxy)benzoic acid], the IC50 was in the range of 0.1 to 1000 nM.

For the molecule `Cc1noc(C)c1-c1cnc2c(-c3ccc(C(=O)O)cc3F)c(C(F)(F)F)n([C@@H](C)c3ccccn3)c2c1` [P-0234, (S)-4-(6-(3,5-dimethylisoxazol-4-yl)-1-(1-(pyridin-2-yl)ethyl)-2-(trifluoromethyl)-1H-pyrrolo[3,2-b]pyridin-3-yl)-3-fluorobenzoic acid], the 50% inhibitory concentration (IC50) fell in the range of 0.1 to 1000 nM.

Take `Cc1cc(C(=O)O)ccc1-c1c(C(F)(F)F)n([C@@H](C)c2ccccn2)c2cc(-c3c(C)noc3C)cnc12` [P-0235, (S)-4-(6-(3,5-dimethylisoxazol-4-yl)-1-(1-(pyridin-2-yl)ethyl)-2-(trifluoromethyl)-1H-pyrrolo[3,2-b]pyridin-3-yl)-3-methylbenzoic acid]: the IC50 was in the range of 0.1 to 1000 nM.

`COc1cc(C(=O)O)ccc1-c1c(C(F)(F)F)n([C@@H](C)c2ccccn2)c2cc(-c3c(C)noc3C)cnc12` [P-0236, (S)-4-(6-(3,5-dimethylisoxazol-4-yl)-1-(1-(pyridin-2-yl)ethyl)-2-(trifluoromethyl)-1H-pyrrolo[3,2-b]pyridin-3-yl)-3-methoxybenzoic acid]: the IC50 is 0.1 to 1000 nM.

Take `Cc1noc(C)c1-c1cnc2c(-c3cn(C)nc3C3CC3)c(C(F)(F)F)n([C@@H](C)c3ccccn3)c2c1` [P-0237, (S)-4-(3-(3-cyclopropyl-1-methyl-1H-pyrazol-4-yl)-1-(1-(pyridin-2-yl)ethyl)-2-(trifluoromethyl)-1H-pyrrolo[3,2-b]pyridin-6-yl)-3,5-dimethylisoxazole]: the 50% inhibitory concentration (IC50) lay in the range of 0.1 to 1000 nM.

In the case of `Cc1noc(C)c1-c1cnc2c(-c3cc(C(=O)O)ccc3F)c(C(F)(F)F)n([C@@H](C)c3ccccn3)c2c1` [P-0238, (S)-3-(6-(3,5-dimethylisoxazol-4-yl)-1-(1-(pyridin-2-yl)ethyl)-2-(trifluoromethyl)-1H-pyrrolo[3,2-b]pyridin-3-yl)-4-fluorobenzoic acid], the half-maximal inhibitory concentration (IC50) lay within 0.1 to 1000 nM.

Take `COc1ccc(C(=O)O)cc1-c1c(C(F)(F)F)n([C@@H](C)c2ccccn2)c2cc(-c3c(C)noc3C)cnc12` [P-0239, (S)-3-(6-(3,5-dimethylisoxazol-4-yl)-1-(1-(pyridin-2-yl)ethyl)-2-(trifluoromethyl)-1H-pyrrolo[3,2-b]pyridin-3-yl)-4-methoxybenzoic acid]: the IC50 is 1000 to 8000 nM.

With `Cc1noc(C)c1-c1cnc2c(-c3cc(F)cc(C(=O)O)c3)c(C(F)(F)F)n([C@@H](C)c3ccccn3)c2c1` [P-0240, (S)-3-(6-(3,5-dimethylisoxazol-4-yl)-1-(1-(pyridin-2-yl)ethyl)-2-(trifluoromethyl)-1H-pyrrolo[3,2-b]pyridin-3-yl)-5-fluorobenzoic acid], the IC50 fell in the range of 0.1 to 1000 nM.

In the case of `Cc1noc(C)c1-c1cnc2c(-c3cc(Cl)cc(C(=O)O)c3)c(C(F)(F)F)n([C@@H](C)c3ccccn3)c2c1` [P-0241, (S)-3-chloro-5-(6-(3,5-dimethylisoxazol-4-yl)-1-(1-(pyridin-2-yl)ethyl)-2-(trifluoromethyl)-1H-pyrrolo[3,2-b]pyridin-3-yl)benzoic acid], the IC50 was in the range of 0.1 to 1000 nM.

As to `Cc1noc(C)c1-c1cnc2c(-c3ccc(C(=O)O)c(F)c3)c(C(F)(F)F)n([C@@H](C)c3ccccn3)c2c1` [P-0242, (S)-4-(6-(3,5-dimethylisoxazol-4-yl)-1-(1-(pyridin-2-yl)ethyl)-2-(trifluoromethyl)-1H-pyrrolo[3,2-b]pyridin-3-yl)-2-fluorobenzoic acid], the IC50 lay within 1000 to 8000 nM.
